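Test compounds were applied to cells in 96-well plates for 48 hours at 5 doses. GI50 = concentration required for 50% inhibition of growth.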 Active and inactive are the calls of the source. Cut-off read from the data, not from the text of the source: active = GI50 up to about 1.1 µM and inactive = higher.
Experiments:
Experiment in all cases: NCI-60 cell line screen, 48 h
[1] = test system: UO-31
[2] = test system: MCF7
[3] = test system: DU-145
[4] = test system: MDA-N
[5] = test system: SW-620
[6] = test system: A498
[7] = test system: HCT-116
[8] = test system: ACHN
[9] = test system: HOP-92
[10] = test system: HT-29
[11] = test system: OVCAR-5
[12] = test system: MOLT-4
[13] = test system: SF-295
[14] = test system: NCI-H226
[15] = test system: Hs-578T
[16] = test system: EKVX
[17] = test system: SK-MEL-5
[18] = test system: RXF 393
[19] = test system: T47D
[20] = test system: SN12C

Compound | GI50 [1] | GI50 [2] | GI50 [3] | GI50 [4] | GI50 [5] | GI50 [6] | GI50 [7] | GI50 [8] | GI50 [9] | GI50 [10] | GI50 [11] | GI50 [12] | GI50 [13] | GI50 [14] | GI50 [15] | GI50 [16] | GI50 [17] | GI50 [18] | GI50 [19] | GI50 [20]
N/C(=N\c1ccccc1Cl)c1ccccc1N | > 100 µM (inactive) | > 100 µM (inactive) | > 100 µM (inactive) | > 100 µM (inactive) | > 100 µM (inactive) | > 100 µM (inactive) | > 100 µM (inactive) | > 100 µM (inactive) | 16 µM (inactive) | > 100 µM (inactive) | > 100 µM (inactive) | > 100 µM (inactive) | > 100 µM (inactive) | > 100 µM (inactive) | > 100 µM (inactive) | > 100 µM (inactive) | > 100 µM (inactive) | > 100 µM (inactive) |  | 
CS/C(=N\C#N)S/C=C/C(=O)c1ccc(Cl)cc1 | 18.3 µM (inactive) | 26.4 µM (inactive) | 25.6 µM (inactive) |  | 15.6 µM (inactive) |  | 18.5 µM (inactive) | 34.4 µM (inactive) | 88.5 µM (inactive) | 21.8 µM (inactive) | 39.4 µM (inactive) | < 0.01 µM (active) | 29.1 µM (inactive) |  | 32.7 µM (inactive) | 66.5 µM (inactive) | 15.9 µM (inactive) | 19.6 µM (inactive) | 25 µM (inactive) | 26.2 µM (inactive)
O=c1/c(=C\c2ccccc2)sc2n1C(c1ccccc1)C1(O)CCCCC1N=2 (centres undefined) | 44.2 µM (inactive) | 43.7 µM (inactive) |  | > 100 µM (inactive) | > 100 µM (inactive) | 36.8 µM (inactive) | 51.3 µM (inactive) | 87.9 µM (inactive) |  | > 100 µM (inactive) | > 100 µM (inactive) | 42.1 µM (inactive) |  | > 100 µM (inactive) |  |  | > 100 µM (inactive) |  | 51.5 µM (inactive) | > 100 µM (inactive)
COC(=O)CC1(O)C(/C=C/c2ccccc2)C(C(=O)OC)C(=O)C(C(=O)OC)C1C(=O)OC (centres undefined) | > 100 µM (inactive) | 96.8 µM (inactive) | > 100 µM (inactive) | 44 µM (inactive) | > 100 µM (inactive) | > 100 µM (inactive) | 54 µM (inactive) | > 100 µM (inactive) | > 100 µM (inactive) | > 100 µM (inactive) | > 100 µM (inactive) | > 100 µM (inactive) | 18.5 µM (inactive) | > 100 µM (inactive) | > 100 µM (inactive) | > 100 µM (inactive) | > 100 µM (inactive) | > 100 µM (inactive) |  | > 100 µM (inactive)
NCCCC(N/C=C1/N=C(c2ccccc2)OC1=O)C(=O)O (centres undefined) | > 100 µM (inactive) |  |  |  | > 100 µM (inactive) | > 100 µM (inactive) | 40.3 µM (inactive) | > 100 µM (inactive) | > 100 µM (inactive) | > 100 µM (inactive) | > 100 µM (inactive) | > 100 µM (inactive) | > 100 µM (inactive) | > 100 µM (inactive) |  | > 100 µM (inactive) | > 100 µM (inactive) | > 100 µM (inactive) |  | > 100 µM (inactive)
c1ccc2c(c1)OC(N1CCCC1)c1cnc(N3CCOCC3)nc1-2 (centres undefined) | 19.3 µM (inactive) | 10.8 µM (inactive) | 66.8 µM (inactive) |  | 91 µM (inactive) | 18.7 µM (inactive) | > 100 µM (inactive) | 38.2 µM (inactive) | 16.8 µM (inactive) | 53.6 µM (inactive) | 22.5 µM (inactive) | 32.9 µM (inactive) | 30.4 µM (inactive) | 30.6 µM (inactive) | 51.1 µM (inactive) | 21.6 µM (inactive) |  | 21.7 µM (inactive) | 3.54 µM (inactive) | 32 µM (inactive)
CCCOc1ccc(/C=C/c2cc(OC)c(OC)c(OC)c2)cc1 | 0.482 µM (active) |  |  |  | 0.218 µM (active) | 1.08 µM (active) | 0.552 µM (active) | 0.697 µM (active) | 0.347 µM (active) | 0.272 µM (active) | 28 µM (inactive) | 0.443 µM (active) | 0.185 µM (active) | 0.373 µM (active) |  | 6.53 µM (inactive) | 0.144 µM (active) | 0.254 µM (active) |  | 0.635 µM (active)
NCc1ccc(C(=O)O)cc1 [AMINOMETHYLBENZOIC ACID] | > 100 µM (inactive) |  | > 100 µM (inactive) | > 100 µM (inactive) | > 100 µM (inactive) | > 100 µM (inactive) | > 100 µM (inactive) | > 100 µM (inactive) | > 100 µM (inactive) | > 100 µM (inactive) | > 100 µM (inactive) | > 100 µM (inactive) | > 100 µM (inactive) | > 100 µM (inactive) |  | > 100 µM (inactive) | > 100 µM (inactive) | > 100 µM (inactive) | > 100 µM (inactive) | > 100 µM (inactive)

Reference: ChEMBL document CHEMBL1201862, “PubChem BioAssay data set” (2004)
